According to patent publication US11918561B2, “Treatment of breast cancer using combination therapies comprising GDC-9545 and a CDK4/6 inhibitor” (Genentech, Inc., priority 2020, dated 2024):

How the values were obtained:
[1] = Pharmacokinetics of GDC-9545 and palbociclib in patients; type: in vivo, human
Source text: Pharmacokinetics. […] Palbociclib PK was not altered when given with GDC-9545 and was consistent with reported values.

[2] = tested on: patients with ER+ (HER2−) metastatic breast cancer; assay: Reason for discontinuation of study treatment; type: in vivo; conditions: Cohort A n = 40, Cohort B n = 48
[3] = tested on: ER pathway signature; assay: Pharmacodynamics: ER pathway signature score in paired biopsies; type: in vivo, human; conditions: 8/12; pre- and on-treatment biopsies (n=12); cohort not stated
Source text: An “ER pathway activity score” as used herein, refers to a numerical value that reflects mathematical difference between the E2-induced score and the E2-repressed score.
Breast cancer is a heterogeneous disease with many distinct subtypes as defined by molecular signatures and a diverse array of mutational profiles. Patients described herein can be tested for ER+ HER2− laBC or mBC using diagnostic methods, or kits to inform treating or predict of responsiveness of a pateint to the combination therapies described herein. In one embodiment, a patient can be tested by determining an ER pathway activity score such as those described in US Patent Application Publication 20200082944. In some embodiments, a patient sample is taken and tested to determine an ER pathway activity score. The score can be calculated using a 41-gene signature by subtracting an E2-repressed score (as determined from the average z-scored expression of genes comprising BAMBI, BCAS1, CCNG2, DDIT4, EGLN3, FAM171B, GRM4, IL1R1, LIPH, NBEA, PNPLA7, PSCA, SEMA3E, SSPO, STON1, TGFB3, TP531NP1, and TP531NP2) from an E2-induced score (as determined from the average z-scored expression of genes set forth in AGR3, AMZ1, AREG, C5AR2, CELSR2, CT62, FKBP4, FMN1, GREB1, IGFBP4, NOSIAP, NXPH3, OLFM1, PGR, PPMIJ, […], RBM24, RERG, RET, SGK3, SLC9A3R1, TFF1, and ZNF703).

[4] = tested on: PR; assay: Pharmacodynamics: PR protein level in paired pre- and on-treatment biopsies; type: in vivo, human; conditions: 7/8, cohort not stated
[5] = target: T1, ER (Homo sapiens, UniProt P03372); assay: Pharmacodynamics: ER protein level in paired pre- and on-treatment biopsies; type: in vivo; conditions: 10/12; pre- and on-treatment biopsies (n=12); cohort not stated
T1 construct: from tissue; host or cells: patients' tumour biopsies (pre- and on-treatment)
T1 sequence (P03372 1-595): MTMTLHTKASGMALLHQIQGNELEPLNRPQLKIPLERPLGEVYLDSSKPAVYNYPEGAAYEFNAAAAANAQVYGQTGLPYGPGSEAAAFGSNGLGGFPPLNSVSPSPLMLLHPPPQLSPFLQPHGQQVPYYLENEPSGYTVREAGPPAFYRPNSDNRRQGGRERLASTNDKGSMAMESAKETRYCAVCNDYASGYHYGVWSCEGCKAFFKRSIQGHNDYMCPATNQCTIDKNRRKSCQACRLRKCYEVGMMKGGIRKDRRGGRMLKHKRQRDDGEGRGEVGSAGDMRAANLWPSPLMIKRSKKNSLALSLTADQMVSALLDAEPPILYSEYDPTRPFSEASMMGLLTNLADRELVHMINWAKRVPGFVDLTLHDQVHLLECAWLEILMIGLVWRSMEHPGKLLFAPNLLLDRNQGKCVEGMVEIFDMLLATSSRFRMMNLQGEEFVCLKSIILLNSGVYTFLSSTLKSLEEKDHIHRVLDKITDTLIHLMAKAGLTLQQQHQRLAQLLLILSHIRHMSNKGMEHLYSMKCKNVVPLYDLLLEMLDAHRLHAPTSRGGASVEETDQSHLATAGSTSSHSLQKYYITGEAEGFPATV

[6] = tested on: ESR1 mutant allele (ctDNA); assay: ctDNA ESR1 mutant allele frequency, change from baseline; type: in vivo, human; conditions: all patients in both cohorts (n=26)
[7] = tested on: patients with ER+ (HER2−) metastatic breast cancer; conditions: human, in vivo
Source text: A graded adverse event refers to the severity grading scale as established for by NCI CTCAE. In one embodiment, the adverse event is graded in accordance with the table below.
No prior treatment with CDK4/6i was allowed in patients receiving palbociclib.

[8] = tested on: ER+ (HER2−) metastatic breast cancer; assay: Clinical activity (clinical benefit, response, PFS; RECIST v1.1); type: in vivo, human
Source text: “Objective response rate” or “ORR” refers the percentage of patients with a confirmed complete response or partial response on two consecutive occasions ≥4 weeks apart, as determined by the investigator according to RECIST v1.1
“Progression free survival” or “PFS” refers to the time from enrollment to the date of the first recorded occurrence of disease progression, as determined by the investigator using RECIST v1.1 or death from any cause, whichever occurs first.
“Clinical benefit rate” or “CBR” refers to the percentage of patients with stable disease for at least 24 weeks or with confirmed complete or partial response, as determined by the investigator according to RECIST v1.1.
Clinical Activity. In Cohort A 22/40 patients (55%) derived clinical benefit defined as patients with CR, PR or first occurrence of progressive disease observed on or after 24 weeks.

[9] = Cohort A n = 40, Cohort B n = 48
[10] = of 31 (Cohort A) and 45 (Cohort B) patients with measurable disease

SMILES: C[C@@H]1Cc2c([nH]c3ccccc23)[C@@H](c2c(F)cc(NC3CN(CCCF)C3)cc2F)N1CC(F)(F)CO [GDC-9545, 3-((1R,3R)-1-(2,6-difluoro-4-((1-(3-fluoropropyl)azetidin-3-yl)amino)phenyl)-3-methyl-1,3,4,9-tetrahydro-2H-pyrido[3,4-b]indol-2-yl)-2,2-difluoropropan-1-ol]
- Exposure of GDC-9545 in combination with palbociclib versus single agent GDC-9545 [1]: generally comparable
- Reason for discontinuation: Death [2]: 1 (3%) patients (%)
- Reason for discontinuation: Disease progression [2]: 22 (55%) patients (%)
- Reduced ER pathway signature scores, share of evaluable paired biopsies [3]: 67%
- Reduced PR protein levels, share of evaluable paired biopsies [4]: 88%
- Reduced ER protein levels, share of evaluable paired biopsies [5]: 83%
- ctDNA ESR1 mutant allele frequency [6]: Decreases from baseline
- Bradycardia AEs reported, patients [7]: 8%
- Grade 3 AEs related to GDC-9545 (others Grade 1-2) [7]: three Grade 3 events of fatigue, transaminase increased, and diarrhea
- Heart rate (HR) changes upon completion of treatment [7]: returned to baseline
- Patients who discontinued study treatment due to AEs [7]: No patients
- Patients with an AE related to GDC-9545 [7]: 58%
- Severity of bradycardia AEs [7]: all were Grade 1 and asymptomatic
- Treatment-emergent AEs (TEAE) reported, patients [7]: 78%
- Clinical benefit in patients with prior fulvestrant treatment ([8]; Cohort A 2/7, Cohort B 2/3): 29%
- Clinical benefit in patients with detectable ESR1 mutations at enrollment ([8]; Cohort A 8/13, Cohort B 11/11): 62%
- Patients who derived clinical benefit (CR, PR or first progressive disease on or after 24 weeks) ([8]; Cohort A 22/40, Cohort B 35/48): 55%
- Median PFS [8, 9]: 7.8 months
- Patients with an event of disease progression or death for PFS calculations [8, 9]: 55%
- CBR ([8]; Table 3): 55%
- ORR ([8]; Table 3): 13%
- Clinical benefit ([8]; number of patients as printed): 40
- Patients with confirmed response [8, 10]: 4
- Patients with unconfirmed response [8, 10]: 4
- Partial response ([8]; patients with measurable disease at baseline, Cohort A 4/31, Cohort B 14/45): 13%

SMILES: CC(=O)c1c(C)c2cnc(Nc3ccc(N4CCNCC4)cn3)nc2n(C2CCCC2)c1=O [Palbociclib, 6-acetyl-8-cyclopentyl-5-methyl-2-{[5-(piperazin-1-yl)pyridin-2-yl]amino}pyrido[2,3-d]pyrimidin-7(8H)-one, reference compound]
- Palbociclib PK when given with GDC-9545 ([1]; consistent with reported values): not altered
